System: human pancreatic lipase
Experiment: lipase activity measured in control, normal and heparin-administered samples with each reagent (1,2-dioleoyl glycerol, UV method; Liquitech Lipase Color II for verification)
Assay type: biochemical
Parameters: lipase activity relative to (1) comparative example NaDCA (Table 1): concentration or dose not given beside the values
Conditions: for lipase activity (Table 1): NaDCA pH 8.15, other bile salts pH 7.0; for lipase activity (Table 2): comparative example pH 8.15, present example pH 7.1, bile acid 40 mmol/L in R-1
Procedure: A mixture of the substrate stock solution and the R-1 in a proportion of 1:2 was used as a first reagent. The R-2 was directly used as a second reagent. As a sample, pooled serum or a control sample (a control containing a pancreatic lipase) was used. A proportion in amount among the sample, the first reagent and the second reagent was set as sample:first reagent:second reagent of 0.01 ml:0.18 ml:0.06 ml. The sample was added to the first reagent, the resultant mixture was heated at 37° C. for 5 minutes, the second reagent was added thereto, and a change rate of an absorbance at 340 nm based on reduced NADP was obtained at 37° C. from 3 minutes after the addition of the second reagent to 4 minutes after the addition, and then, the lipase activity was calculated by using a molecular extinction coefficient of 6300 L/mol·cm of the reduced NADP. Besides, as a sample blank, saline was used instead of a sample, an absorbance was measured by using the reagent for sample blank obtained by removing MGLPII from the second reagent, and a difference between the thus measured two values was defined as an enzyme activity value. For the measurement, Hitachi automatic analyzer Model H7170 or H7080 was used.
Similarly to Example 1, a mixture of the substrate stock solution and the R-1 in a proportion of 1:2 was used as a first reagent. Except for this, the measurement was performed in the same manner as in Example 1.
A commercially available reagent for a resorufin colorimetric method, “Liquitech Lipase Color II” manufactured by Roche Diagnostics using 1,2-O-dilauryl-rac-glycerol-3-glutaric acid-(6-methylresorufin)ester (DGGR), which is regarded not to be influenced by a non-pancreatic lipase, such as a lipoprotein lipase or a hepatic lipase, appearing in blood due to administration of heparin, was used for verifying the effect of the present example. “Liquitech Lipase Color II” was used in accordance with the package insert, and a special calibrator was used for calculating the enzyme activity. […] The concentration of each bile acid used in the present example was set to be the same as that in the comparative example.
As samples, a control, non-heparin-administered samples (normal samples), and heparin-administered samples were used.
The compositions of the reagents were the same as those of Example 2. As a comparative example, NaDCA (in a concentration of 40 mmol/L in the R-1) was used as the bile acid, and the reaction solution was adjusted to pH 8.15 (by the Bicine buffer) for measuring a heparin-administered sample.
It is noted that CRM-001b containing a human pancreatic recombinant lipase dissolved not in distilled water but in a pooled serum was used as the calibrator to calculate the lipase activity.
As a bile acid of the present example and a reference example, NaTDCA was selected, and the pH dependence with the pH of a reaction solution changed in a range of 6.2 to 7.6 was examined. It is noted that a case of pH 7.6 was used as the reference example. An MES buffer was used for adjusting pH to 6.2 and 6.4, and the BES buffer was used for adjusting the other pHs. As samples, (six) control samples (controls each containing a pancreatic lipase) and (nine) heparin-administered samples were used. As a comparative example, NaDCA (in a concentration of 40 mmol/L in the R-1) was used as the bile acid, and a reaction solution having pH 8.15 (the Bicine buffer) was used. Besides, “Liquitech Lipase Color II” manufactured by Roche Diagnostics was used for verifying the effect of the present example.

C[C@H](CCC(=O)NCC(=O)[O-])[C@H]1CC[C@H]2[C@@H]3[C@H](O)C[C@@H]4C[C@H](O)CC[C@]4(C)[C@H]3CC[C@]12C.[Na+] [NaGCDCA, sodium glycochenodeoxycholate]
sensitivity at pH 7.95 compared with pH 7.0 (NaGCDCA 40 mmol/L in R-1): about 40%
lipase activity (Table 1) (Normal sample 1): 38.1 U/L
lipase activity relative to (1) comparative example NaDCA (Table 1) (Normal sample 1, pH 7.0): 97.5%
lipase activity (Table 1) (Normal sample 2): 75.6 U/L
lipase activity relative to (1) comparative example NaDCA (Table 1) (Normal sample 2, pH 7.0): 79.5%
lipase activity (Table 1) (Normal sample 3): 41.2 U/L
lipase activity relative to (1) comparative example NaDCA (Table 1) (Normal sample 3, pH 7.0): 88.4%
lipase activity (Table 1) (Normal sample 4): 31.7 U/L
lipase activity relative to (1) comparative example NaDCA (Table 1) (Normal sample 4, pH 7.0): 73.0%
lipase activity (Table 1) (Normal sample 5): 28.8 U/L
lipase activity relative to (1) comparative example NaDCA (Table 1) (Normal sample 5, pH 7.0): 70.8%
lipase activity (Table 1) (sample Heparin 1): 30.8 U/L
lipase activity (Table 2) (sample Heparin 1): 47.8 U/L
lipase activity relative to (1) comparative example NaDCA (Table 1) (sample Heparin 1, pH 7.0): 40.1%
lipase activity (Table 1) (sample Heparin 2): 41.3 U/L
lipase activity (Table 2) (sample Heparin 2): 25.9 U/L
lipase activity relative to (1) comparative example NaDCA (Table 1) (sample Heparin 2, pH 7.0): 47.6%
lipase activity (Table 1) (sample Heparin 3): 29.8 U/L
lipase activity (Table 2) (sample Heparin 3): 44.0 U/L
lipase activity relative to (1) comparative example NaDCA (Table 1) (sample Heparin 3, pH 7.0): 26.4%
lipase activity (Table 1) (sample Heparin 4): 31.6 U/L
lipase activity relative to (1) comparative example NaDCA (Table 1) (sample Heparin 4, pH 7.0): 31.2%
lipase activity (Table 1) (sample Heparin 5): 17.8 U/L
lipase activity relative to (1) comparative example NaDCA (Table 1) (sample Heparin 5, pH 7.0): 26.0%
lipase activity (Table 1) (sample Heparin 6): 22.5 U/L
lipase activity relative to (1) comparative example NaDCA (Table 1) (sample Heparin 6, pH 7.0): 32.5%
lipase activity (Table 1) (sample Heparin 7): 51.0 U/L
lipase activity relative to (1) comparative example NaDCA (Table 1) (sample Heparin 7, pH 7.0): 36.9%
lipase activity (Table 1) (sample Heparin 8): 36.6 U/L
lipase activity relative to (1) comparative example NaDCA (Table 1) (sample Heparin 8, pH 7.0): 29.0%
lipase activity (Table 1) (sample Heparin 9): 75.4 U/L
lipase activity relative to (1) comparative example NaDCA (Table 1) (sample Heparin 9, pH 7.0): 44.7%
lipase activity (Table 5) (sample Heparin 31, pH 7.0): 40.7 U/L
lipase activity (Table 5) (sample Heparin 31, pH 7.95): 60.7 U/L
lipase activity (Table 5) (sample Heparin 32, pH 7.0): 32.7 U/L
lipase activity (Table 5) (sample Heparin 32, pH 7.95): 77.0 U/L
lipase activity (Table 1) (sample PRECINORM): 42.3 U/L
lipase activity (Table 5) (sample PRECINORM, pH 7.0): 42.3 U/L
lipase activity relative to (1) comparative example NaDCA (Table 1) (sample PRECINORM, pH 7.0): 82.9%
lipase activity (Table 5) (sample PRECINORM, pH 7.95): 24.0 U/L
lipase activity (Table 1) (sample PRECIPATH): 109.9 U/L
lipase activity (Table 5) (sample PRECIPATH, pH 7.0): 109.9 U/L
lipase activity relative to (1) comparative example NaDCA (Table 1) (sample PRECIPATH, pH 7.0): 85.9%
lipase activity (Table 5) (sample PRECIPATH, pH 7.95): 57.3 U/L
lipase activity (Table 5) (sample Pool 1, pH 7.0): 36.9 U/L
lipase activity (Table 5) (sample Pool 1, pH 7.95): 19.4 U/L
lipase activity (Table 5) (sample Pool 2, pH 7.0): 17.5 U/L
lipase activity (Table 5) (sample Pool 2, pH 7.95): 15.4 U/L
lipase activity (Table 5) (sample Seraclear LP, pH 7.0): 17.5 U/L
lipase activity (Table 5) (sample Seraclear LP, pH 7.95): 7.5 U/L

Source: patent publication US10000791B2, “Measurement method for human pancreatic lipase activity” (ASAHI KASEI PHARMA CORPORATION, priority 2013, dated 2018)
